The values below come from US20060094685A1, “Medicinal composition for drug-induced neuropathy” (priority 2002, published 2006).

Experiment [1] concerns Mice With Acrylamide Induced Sensory Neuropathy. As to the kind of experiment: Tail Flick Test using mice with acrylamide-induced sensory neuropathy. Particulars: CDP-choline·Na 100 mg/kg oral once a day for 1 week. In kind it is in vivo, mouse (male ICR strain). The protocol: Experiment: Tail Flick Test Using Mice With Acrylamide Induced Sensory Neuropathy (In Vivo) (1) Preparation of Mouse With Acrylamide-induced Sensory Neuropathy Acrylamide (2.5 mg/mice) dissolved in injectable physiological saline was intraperitoneally administered to male ICR strain mice (7-week-old, 10 per group) 5 times a week for 1 week to induce sensory neuropathy. (2) Administration of CDP-choline CDP-choline·Na was dissolved in distilled water, and oral administration thereof (100 mg/kg per dose) was started on the same day as acrylamide once a day for 1 week. (3) Tail Flick Test A photothermic stimulation was given to the tail of mouse, and the reaction latency up to the motion of the tail upon sensing the heat was measured. The measurement results of the reaction latency of a control group, an acrylamide administration group and an acrylamide administration group with administration of CDP-choline (100 mg/kg) are shown in FIG. 2.

The subject of experiment [2] is Vincristine-induced Sensory Neuropathy Mouse. The experiment can be described thus: Tail Flick Test using vincristine-induced sensory neuropathy mouse. Type of experiment: in vivo, mouse (male ICR strain). Particulars: CDP-choline·Na 500 mg/kg oral once a day for 10 weeks. The protocol:
Experiment: Tail Flick Test Using Vincristine-induced Sensory Neuropathy Mouse (In Vivo) (1) Preparation of Mouse with Vincristine-induced Sensory Neuropathy Vincristine (0.05 mg/kg for the first time, 0.125 mg/kg for the second time and the following) dissolved in injectable physiological saline was intraperitoneally administered to male ICR strain mice (7-week-old, 10 per group) twice a week for 10 weeks to induce sensory neuropathy. (2) Administration of CDP-choline CDP-choline·Na was dissolved in distilled water, and oral administration thereof (500 mg/kg per dose) was started on the same day as vincristine once a day for 10 weeks. (3) Tail Flick Test A photothermic stimulation was given to the tail of mouse, and the reaction latency up to the motion of the tail upon sensing the heat was measured. The measurement results of the reaction latency of a control group, a vincristine administration group and a vincristine administration group with administration of CDP-choline (500 mg/kg) are shown in FIG. 1.

Each structure is given as a SMILES string. Where a name gives a salt, the structure may show the parent alone.

As for `C[N+](C)(C)CCOP(=O)(O)OP(=O)([O-])OC[C@H]1O[C@@H](n2ccc(N)nc2=O)[C@H](O)[C@@H]1O` [CDP-choline, cytidine 5′-diphosphocholine-monosodium salt], the “suppression of acrylamide-induced sensory neuropathy (hyperesthesia-like symptom)” value in experiment [1] (started on the same day as acrylamide i.p. 5 times a week, 10 mice per group) is reported as “almost completely suppressed”. The “reaction latency in Tail Flick Test” value was “of the same level as the control group” in experiment [1] (acrylamide-treated mice, compared to control group, FIG. 2) and “of the same level as the control group” in experiment [2] (vincristine-treated mice, compared to control group, FIG. 1). Also, the “suppression of vincristine-induced sensory neuropathy (hyperesthesia-like symptom)” value in experiment [2] (started on the same day as vincristine i.p. twice a week, 10 mice per group) is reported as “almost completely suppressed”.
